Source: the supplement of paper PMC10307832

Experiments:
Assay in all cases: relative viability (nuclei count vs DMSO), 5 days (fraction); higher = more cells survive
Dovitinib + Foretinib = compound: CN1CCN(c2ccc3nc(-c4c(N)c5c(F)cccc5[nH]c4=O)[nH]c3c2)CC1 [Dovitinib] + COc1cc2c(Oc3ccc(NC(=O)C4(C(=O)Nc5ccc(F)cc5)CC4)cc3F)ccnc2cc1OCCCN1CCOCC1 [Foretinib] (partner 0.25 µM)
In short: (§1)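 Five library-drug doses in √10 steps were combined with a fixed anchor-drug dose, or a single drug was given alone, by pin tool to lung cancer cell lines in 1536-well plates the day after seeding. Nuclei were stained and counted after 5 days. Relative viability is the nuclei count in treated wells over that in vehicle wells, taken as the median of duplicate plates.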

Dovitinib + Decitabine = compound: CN1CCN(c2ccc3nc(-c4c(N)c5c(F)cccc5[nH]c4=O)[nH]c3c2)CC1 [Dovitinib] + Nc1ncn([C@H]2C[C@H](O)[C@@H](CO)O2)c(=O)n1 [Decitabine] (partner 2 µM)
In short: as §1

Dovitinib + Dasatinib = compound: CN1CCN(c2ccc3nc(-c4c(N)c5c(F)cccc5[nH]c4=O)[nH]c3c2)CC1 [Dovitinib] + Cc1nc(Nc2ncc(C(=O)Nc3c(C)cccc3Cl)s2)cc(N2CCN(CCO)CC2)n1 [Dasatinib] (partner 0.075 µM)
In short: as §1

Dovitinib + Luminespib = compound: CN1CCN(c2ccc3nc(-c4c(N)c5c(F)cccc5[nH]c4=O)[nH]c3c2)CC1 [Dovitinib] + CCNC(=O)c1noc(-c2cc(C(C)C)c(O)cc2O)c1-c1ccc(CN2CCOCC2)cc1 [Luminespib] (partner 0.01 µM)
In short: as §1

Row | Cell Line | relative viability (Dovitinib + Foretinib; first compound 0.02 µM) | relative viability (Dovitinib + Foretinib; first compound 0.06325 µM) | relative viability (Dovitinib + Foretinib; first compound 0.2 µM) | relative viability (Dovitinib + Foretinib; first compound 0.6325 µM) | relative viability (Dovitinib + Foretinib; first compound 2 µM) | relative viability (Dovitinib + Decitabine; first compound 0.02 µM) | relative viability (Dovitinib + Decitabine; first compound 0.06325 µM) | relative viability (Dovitinib + Decitabine; first compound 0.2 µM) | relative viability (Dovitinib + Decitabine; first compound 0.6325 µM) | relative viability (Dovitinib + Decitabine; first compound 2 µM) | relative viability (Dovitinib + Dasatinib; first compound 0.02 µM) | relative viability (Dovitinib + Dasatinib; first compound 0.06325 µM) | relative viability (Dovitinib + Dasatinib; first compound 0.2 µM) | relative viability (Dovitinib + Dasatinib; first compound 0.6325 µM) | relative viability (Dovitinib + Dasatinib; first compound 2 µM) | relative viability (Dovitinib + Luminespib; first compound 0.02 µM) | relative viability (Dovitinib + Luminespib; first compound 0.06325 µM) | relative viability (Dovitinib + Luminespib; first compound 0.2 µM) | relative viability (Dovitinib + Luminespib; first compound 0.6325 µM) | relative viability (Dovitinib + Luminespib; first compound 2 µM)
1 | HCC-366 | 0.958 | 0.901 | 0.947 | 0.925 | 0.883 | 0.341 | 0.363 | 0.362 | 0.317 | 0.378 | 0.687 | 0.604 | 0.648 | 0.616 | 0.618 |  |  |  |  | 
2 | HCC-827 | 0.983 | 1.07 | 1.14 | 1.09 | 1.09 | 0.308 | 0.353 | 0.324 | 0.336 | 0.338 | 0.358 | 0.327 | 0.357 | 0.366 | 0.407 | 0.854 | 0.676 | 0.596 | 0.509 | 0.717
3 | HOP-62 | 1.05 | 1.18 | 1.08 | 1.28 | 1.07 | 0.208 | 0.255 | 0.191 | 0.269 | 0.214 | 0.643 | 0.601 | 0.64 | 0.632 | 0.662 | 0.888 | 1.03 | 0.868 | 0.89 | 0.931
4 | IA-LM | 1.2 | 1.19 | 1.05 | 1.24 | 1.12 |  |  |  |  |  |  |  |  |  |  |  |  |  |  | 
5 | LC-2-ad | 0.989 | 0.946 | 1.03 | 0.911 | 1.05 | 0.777 | 0.815 | 0.711 | 0.795 | 0.774 | 0.661 | 0.524 | 0.55 | 0.514 | 0.429 | 0.991 | 0.994 | 1.01 | 0.979 | 0.995
6 | LCLC-97TM1 | 0.986 | 0.974 | 1.01 | 0.922 | 1.01 | 0.188 | 0.118 | 0.203 | 0.217 | 0.206 | 0.8 | 0.896 | 0.887 | 0.876 | 0.775 | 0.953 | 0.746 | 0.831 | 0.801 | 0.701
7 | LCLC-103H | 0.901 | 0.674 | 0.826 | 0.79 | 0.764 | 0.722 | 0.775 | 0.75 | 0.758 | 0.739 | 0.487 | 0.503 | 0.461 | 0.374 | 0.489 | 0.963 | 1 | 1.01 | 0.885 | 0.922
8 | LK-2 | 1.39 | 1.21 | 1.4 | 0.946 | 1.04 | 0.267 | 0.333 | 0.295 | 0.384 | 0.268 | 0.282 | 0.242 | 0.281 | 0.325 | 0.396 | 0.191 | 0.162 | 0.179 | 0.219 | 0.182
9 | LOU-NH91 | 0.926 | 0.896 | 0.95 | 0.921 | 1.05 | 0.817 | 0.812 | 0.817 | 0.816 | 0.813 | 0.586 | 0.553 | 0.549 | 0.64 | 0.574 | 0.322 | 0.308 | 0.335 | 0.327 | 0.349
10 | LU99A | 0.714 | 0.782 | 0.79 | 0.812 | 0.932 | 0.759 | 0.762 | 0.965 | 0.981 | 0.904 | 0.508 | 0.448 | 0.572 | 0.517 | 0.46 | 0.243 | 0.221 | 0.27 | 0.282 | 0.254
11 | LXF-289 | 0.99 | 1.01 | 0.882 | 1.02 | 0.953 | 0.438 | 0.402 | 0.391 | 0.372 | 0.359 | 0.201 | 0.206 | 0.263 | 0.253 | 0.266 | 0.722 | 0.683 | 0.737 | 0.677 | 0.663
12 | NCI-H23 | 0.899 | 0.913 | 1.09 | 0.962 | 0.983 | 0.309 | 0.329 | 0.346 | 0.284 | 0.291 | 0.837 | 0.729 | 0.976 | 0.731 | 0.734 | 0.194 | 0.219 | 0.201 | 0.229 | 0.24
13 | NCI-H322M | 0.95 | 0.898 | 0.941 | 0.923 | 0.869 | 0.667 | 0.692 | 0.746 | 0.737 | 0.705 | 0.24 | 0.263 | 0.243 | 0.249 | 0.284 | 0.835 | 0.883 | 0.831 | 0.803 | 0.792
14 | NCI-H522 |  |  |  |  |  | 0.651 | 0.647 | 0.665 | 0.727 | 0.785 | 0.857 | 0.867 | 0.93 | 0.706 | 0.887 | 1.15 | 0.989 | 1.01 | 1.19 | 1.07
15 | NCI-H1299 | 1.11 | 1.1 | 1.11 | 1.11 | 1.06 |  |  |  |  |  |  |  |  |  |  |  |  |  |  | 
16 | NCI-H1563 | 0.983 | 0.977 | 0.975 | 0.898 | 0.953 |  |  |  |  |  | 0.478 | 0.475 | 0.469 | 0.507 | 0.509 | 0.567 | 0.481 | 0.615 | 0.509 | 0.543
17 | NCI-H1648 |  |  |  |  |  | 0.502 | 0.445 | 0.444 | 0.455 | 0.458 |  |  |  |  |  |  |  |  |  | 
18 | NCI-H1703 | 0.326 | 0.332 | 0.445 | 0.355 | 0.328 |  |  |  |  |  |  |  |  |  |  |  |  |  |  | 
19 | NCI-H1792 |  |  |  |  |  | 0.539 | 0.6 | 0.468 | 0.502 | 0.505 | 0.873 | 0.738 | 0.775 | 0.793 | 0.803 | 0.481 | 0.332 | 0.516 | 0.645 | 0.487
20 | NCI-H2228 | 0.9 | 0.832 | 0.928 | 1.08 | 0.915 |  |  |  |  |  | 0.549 | 0.624 | 0.495 | 0.435 | 0.588 | 0.104 | 0.151 | 0.161 | 0.141 | 0.172
